Measured values: US8399520B2, “Selective estrogen receptor modulator” (Eisai R&D Management Co., Ltd., priority 2002, dated 2013)
Values belong to the molecule of their own block, whether it stands above or below them.

How the values were obtained:
[1] = target: T1, estrogen receptor derived from bovine uterus (Bos taurus, UniProt P49884); assay: In vitro estrogen receptor binding assay; conditions: read-out: Estrogen receptor binding affinity: Ki
T1 construct: estrogen receptor derived from bovine uterus was diluted with the assay buffer solution so that 10 to 20 μg total protein was present; from tissue; host or cells: bovine uterus
T1 sequence (P49884 1-596): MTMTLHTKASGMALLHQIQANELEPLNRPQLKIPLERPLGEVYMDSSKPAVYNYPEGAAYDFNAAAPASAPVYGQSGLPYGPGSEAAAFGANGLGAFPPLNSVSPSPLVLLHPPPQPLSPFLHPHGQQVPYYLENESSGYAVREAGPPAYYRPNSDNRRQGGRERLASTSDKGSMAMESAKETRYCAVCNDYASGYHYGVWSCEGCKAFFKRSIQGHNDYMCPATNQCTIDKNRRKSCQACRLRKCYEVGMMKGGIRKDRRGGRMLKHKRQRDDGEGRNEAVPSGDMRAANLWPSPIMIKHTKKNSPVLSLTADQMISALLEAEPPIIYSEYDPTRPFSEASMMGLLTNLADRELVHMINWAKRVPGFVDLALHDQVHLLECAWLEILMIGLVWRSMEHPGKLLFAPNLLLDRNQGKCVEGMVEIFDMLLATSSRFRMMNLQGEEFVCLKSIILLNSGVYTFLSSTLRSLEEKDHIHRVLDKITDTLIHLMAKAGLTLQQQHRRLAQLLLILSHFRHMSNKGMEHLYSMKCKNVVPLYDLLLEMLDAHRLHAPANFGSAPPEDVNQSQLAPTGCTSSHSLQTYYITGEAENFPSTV
Method: The binding affinity of the compound according to the present invention to estrogen receptor was measured using an in vitro estrogen receptor binding assay. The binding affinity measures the ability of the compound according to the present invention to remove [^3H]-estradiol from estrogen receptor derived from bovine uterus. The following materials were used in this assay: (1) the assay buffer solution was 20 mM Tris/HCl (pH 7.5) containing 1 mM dithiothreitol (DTT), 1 mM EDTA and 10% glycerol; (2) radioactive ligand was [^3H]-estradiol purchased from Amersham Life Science; (3) the cold ligand was diethylstilbestrol purchased from sigma (Sigma); and (4) the estrogen receptor was derived from bovine uterus. The compound to be tested was prepared as a 10% DMSO solution. [^3H]-estradiol was dissolved in the assay buffer solution so as to obtain a final concentration of 1 nM. […] Each plate contains total binding, non-specific binding and the binding which were not inhibited by various concentrations of the compound. The plate was incubated for 1 hour at room temperature. […] These mixtures were centrifuged, and the supernatant thereof was evaluated for its radioactivity using a liquid scintillation counter. Specific binding was calculated by subtracting non-specific binding dpm (counts remaining in the supernatant obtained by centrifugal separation of a reaction mixture containing estrogen receptor derived from bovine uterus, radioactive ligand and excess cold ligand) from the total binding dpm (counts remaining in the supernatant obtained by centrifugal separation of a reaction mixture containing estrogen receptor derived from bovine uterus and radioactive ligand only). The effectiveness of the compound was evaluated by Ki. […] C is the concentration of [^3H]-estradiol in the reaction mixture, and Kd is the [^3H]-estradiol dissociation constant. The Kd was determined by Scatchard analysis. That is to say, various concentrations of [^3H]-estradiol were used to measure the concentration of specifically bound [^3H]-estradiol, which served as the horizontal axis, the value which was obtained by dividing the concentration of specifically bound [^3H]-estradiol by the concentration [^3H]-estradiol not bound to the receptor served as the vertical axis to produce a plot, and the negative value of the inverse of the slope of the resulting straight line was used as Kd.

[2] = tested on: MCF-7 breast cancer cells; assay: MCF-7 growth analysis (estrogen agonist and antagonist activity, MTT assay); format: cell-based; conditions: Homo sapiens; for activity at 0.1 µM: MCF7, MCF-7, 72 hours, growth rate of diluent control = 100, of 17β-estradiol (1 nM) = 200, read-out: Agonist activity: growth rate (100 nM test compound); for IC50: MCF7, MCF-7 growth with 17β-estradiol (10 pM) present simultaneously, 72 hours
Method: Test Example 2 determines the estrogen agonist and antagonist activities of the compound according to the present invention in reproduction system cells. […] The present test was carried out according to the following procedures. MCF-7 breast cancer cells were cultured in the preservation medium until the compound evaluation. The preservation medium is the MEM (minimum essential medium, phenol red-free, Gibco, ##51200-038) supplemented with 10% (volume/volume) fetal bovine serum (FBS), 2 mM L-glutamine, 1 mM sodium pyruvate, non-essential amino acids (0.1 mM, Gibco, #15240-062), and antibiotic-antimycotic solution ( 1/50 of culture medium volume, Gibco). Five days prior to analysis, the preservation medium was exchanged with analytical medium to which 10% charcoal-stripped fetal bovine serum (charcoal-FBS) was added instead of 10% FBS, so as to deprive the MCF-7 cells of endogenous steroids. Twenty-four hours after exchange to the analytical medium, the MCF-7 cells were removed from the preservation flask using cell isolation medium (trypsin-EDTA solution, Gibco). The cells were washed with analytical medium once, and cell suspension at 50,000 cell/ml was prepared using the analytical medium. The prepared cell suspension was added to a 96 well flat-bottomed microculture at […] (5,000 cells) per well, the cells were cultured in a 5% CO2 incubator for 24 hours at 37° C., to equilibrate the cells after cell transfer. […] The cells were further cultured in the 5% CO2 incubator for 72 hours at 37° C. After culturing, the cell growth was examined by the MTT assay. MTT assay was carried out as the following protocols. MTT solution at 8 mg/ml (MTT dissolved in phosphate saline water buffer) was added to the microculture at 10 μl/well, and the cells were cultured in the 5% CO2 incubator for 30 minutes at 37° C. Thereafter, resulting from the reduction of MTT by the cells, formazan crystals were dissolved by adding a dissolution buffer (400 g/l of an aqueous solution of SDS (50%) and dimethylformamide (50%)) to the microculture at 100 μl/well, and incubated the microculture for more than 4 hours in the dark. For each well of the microculture, the optical density at 590 nm due to the dissolved formazan crystals was measured.

[3] = tested on: ovariectomized rats; assay: Bone resorption in ovariectomized rats: deoxypyridinoline in urine; format: in vivo, rat; conditions: for Deoxypyridinoline, 5 weeks / Deoxypyridinoline, 8 weeks: OVX rats, 10 mg/kg orally once a day Monday to Friday, urine; for Effect on excretion of deoxypyridinoline in urine (in words): ovariectomized rats, after 5 and 8 weeks administrations
Source text: (§1) Ten weeks old Female Fischer rats (F344/N, Japan SLC, Shizuoka, Japan) were used. Rats were grouped to eliminate the effect of body weight between each group and housed with free access to food and water. Animals were anesthetized with Nembutal (Abbott Laboratories, Chicago, Ill.) and the ovaries were removed. In sham-operated group, ovaries were only touched with tweezers. Administration of compounds was started one day after the operation.
(§2) Estradiol (Sigma-Aldrich, St. Louis, Mo.) was dissolved in DMSO to 150 mg/mL then diluted with sesame oil to 0.15 mg/mL. The compounds in Examples 736 and 814, and Raloxifene were suspended in sesame oil to 5, 5 and 1.5 mg/mL, respectively. Samples were divided into aliquots for daily administration and preserved at −18° C. until use.
(§3) The samples were orally administered at 2 mL/kg. Administration was carried out once a day from Monday to Friday for 8 weeks.
Urine was gathered overnight (17 hours) using the metabolic cage under fasting. The amount of urinary deoxypyridinoline was measured with ELISA kit, Osteorincs-DPD (Sumitomo Seiyaku Biomedical Co., Ltd., Osaka, Japan) and evaluated as total amount produced in 17 hours or as the amount per 1 mg of creatinine.

[4] = tested on: ovariectomized rats; assay: Ovariectomized rats: bone density of femur and fifth lumbar vertebrae; format: in vivo, rat; conditions: for Bone Mineral Density, Distal femur / Bone Mineral Density, Lumber 5 / Bone Mineral Density, Whole femur: OVX rats, 10 mg/kg orally, 8 weeks; for Effect on bone mineral density of femur and fifth lumbar vertebrae (in words): ovariectomized rats, eight weeks after ovariectomy, compared with sham-operated rats
Source text: as §1, §2, §3
After animals were sacrificed by decapitation, left femur and the fifth lumbar vertebrae were removed. The bone density was measured by using QDR-1000/W (Ho logic Inc., Bedford, Mass.).

[5] = tested on: ovariectomized rats; assay: Ovariectomized rats: uterus wet weight; format: in vivo, rat; conditions: rat, in vivo
Source text: as §1, §2, §3
After animals were sacrificed by decapitation, uterus was removed and adipose tissue and vagina was separated from uterus prior to uterus weight measurement.

Ki [1]: 6 nM
IC50 [2]: 0.74 nM
Structure (SMILES): CCNCCc1ccc(CN(CC)c2cc(OC)ccc2[C@@H]2CCc3cc(O)ccc3C2)cc1 [Example 736, (R)-6-{2-{Ethyl[4-(2-ethylaminoethyl)benzyl]amino}-4-methoxyphenyl}-5,6,7,8-tetrahydronaphthalen-2-ol]
activity at 0.1 µM [2]: 73%
Deoxypyridinoline, 5 weeks [3]: 10.48 ± 0.52 nM/mg/dl
Deoxypyridinoline, 8 weeks [3]: 15.33 ± 0.78 nM/mg/dl
Effect on excretion of deoxypyridinoline in urine (in words) [3]: significantly attenuated the excretion of deoxypyridinoline
Bone Mineral Density, Distal femur [4]: 0.256 ± 0.002 g/cm^2
Bone Mineral Density, Lumber 5 [4]: 0.156 ± 0.003 g/cm^2
Bone Mineral Density, Whole femur [4]: 0.241 ± 0.002 g/cm^2
Effect on bone mineral density of femur and fifth lumbar vertebrae (in words) [4]: preserved bone mineral density at the level in sham-operated rats
Effect on uterus wet weight (in words) [5]: did not influence the wet weight of the uterus at all

Ki [1]: 8.4 nM
IC50 [2]: 3.23 nM
Structure (SMILES): COc1ccc([C@@H]2CCc3cc(O)ccc3C2)c(N(CCO)Cc2ccc(OCC(C)(C)N(C)C)cc2)c1 [Example 814, (R)-6-{2-[[4-(2-Dimethylamino-2-methylpropoxy)benzyl](2-hydroxyethyl)amino]-4-methoxyphenyl}-5,6,7,8-tetrahydronaphthalen-2-ol]
activity at 0.1 µM [2]: 95%
Deoxypyridinoline, 5 weeks [3]: 11.22 ± 1.12 nM/mg/dl
Deoxypyridinoline, 8 weeks [3]: 15.48 ± 0.98 nM/mg/dl
Effect on excretion of deoxypyridinoline in urine (in words) [3]: significantly attenuated the excretion of deoxypyridinoline
Bone Mineral Density, Distal femur [4]: 0.248 ± 0.002 g/cm^2
Bone Mineral Density, Lumber 5 [4]: 0.159 ± 0.001 g/cm^2
Bone Mineral Density, Whole femur [4]: 0.237 ± 0.002 g/cm^2
Effect on bone mineral density of femur and fifth lumbar vertebrae (in words) [4]: preserved bone mineral density at the level in sham-operated rats
Effect on uterus wet weight (in words) [5]: slightly increased uterus wet weight to the same level
